Laboratory results published in BigSolDB 2.1.

CC(=O)N[C@@H](Cc1ccc(O)cc1)C(=O)O
solubility (mole fraction)
Details	283.15 K	288.15 K	293.15 K	298.15 K	303.15 K	308.15 K	313.15 K	318.15 K	323.15 K
in acetone	0.106	0.116	0.132	0.136	0.145	0.152	0.166	0.181	0.197
in acetonitrile	0.00301	0.00353	0.00436	0.00526	0.0064	0.00795	0.00988	0.0129	0.017
in dimethyl carbonate	0.00114	0.00122	0.00127	0.0015	0.00224	0.00267	0.00307	0.00373	0.00404
in ethyl acetate	0.00383	0.00412	0.00477	0.00507	0.00577	0.00655	0.0073	0.00849	0.0102
in isobutanol	0.0349	0.0378	0.0468	0.0522	0.06	0.0683	0.0777	0.0853	0.0973
in isopentanol	0.0363	0.0394	0.0487	0.05	0.0568	0.0634	0.0635	0.0749	0.0807
in isopropanol	0.0772	0.0942	0.105	0.111	0.122	0.134	0.148	0.159	0.171
in methyl acetate	0.00475	0.00537	0.00621	0.00723	0.0085	0.00995	0.0115	0.0139	0.0162
in n-butanol	0.0529	0.058	0.0653	0.0715	0.0789	0.0892	0.0911	0.0979	0.108
in n-butyl acetate	0.00136	0.00179	0.00214	0.00252	0.003	0.00351	0.00388	0.00413	0.00435
in n-propyl acetate	0.00163	0.00185	0.00232	0.00261	0.00289	0.00366	0.0041	0.00509	0.00537
in sec-butanol	0.08	0.0885	0.0967	0.103	0.113	0.125	0.137	0.146	0.159
in water	0.00875	0.00935	0.0115	0.0154	0.021	0.0292	0.0459	0.0726	0.106
